Values joined by “and” are separate entries in the source; they are usually repeats but may differ in a detail not shown here. Equal values may be shown once.

As usually defined, the viability, T/C is the ratio of treated to control. In general, IC50 refers to the concentration that gives 50% inhibition.

In the experiment the test system is 843126-344-R-J1-PDC complex spheroid viability. Put plainly: Anticancer human tumor 843126-344-R-J1-PDC patient-derived melanoma cell line growth inhibition [POLQ]. The following applies: for viability, T/C: stronger effect = lower value; for IC50: curve of compound. Here is the method: Multicellular complex tumor spheroid response to Polymerase (POL) inhibitors (novobiocin, ART-558, RP6685) in combination with a variety of drugs and investigational agents in selected tumor cell lines
The POL inhibitors (novobiocin, ART-558, and RP6685) were evaluated both individually and in combination with standard of care and investigational anticancer small molecules within a complex spheroid model of solid tumors. . Complex spheroids include a stromal component modeled by human endothelial cells (HUVEC) and fibroblasts modeled by human mesenchymal stem cells (MSCs). The concentration ranges selected for each drug and investigational agent were based upon clinically achievable concentrations if the clinical Cmax of the agent was known.
Compounds. The drugs and investigational agents: novobiocin (NSC847541), ART-558 (NSC835418), RP-6685 (NSC848927), peposertib (NSC802822), ceralasertib (NSC780249), elimusertib (NSC800525), camonsertib (NSC841442), AZD-1390 (NSC803789), olaparib (NSC753686), talazoparib (NSC767125), rucaparib (NSC756644), sotorasib (NSC818433), MRTX-1133 (NSC836407), SN-38 (NSC673596), topotecan (NSC609699), epotoside (NSC141540), doxorubicin (NSC123127), gemcitabine (NSC613327), 5-fluorouracil (NSC19893), paclitaxel (NSC125973), vemurafenib (NSC761431), MSA-2 (NSC828583), SN-011 (NSC837082), adavosertib (NSC754352), prexasertib (NSC758257), carboplatin (NSC241240) and oxaliplatin (NSC266046), were obtained from the National Cancer Institute (NCI) Developmental Therapeutics Program Chemical Repository (21). The FDA-approved anticancer drug set is available from the Developmental Therapeutics Program at https://dtp.cancer.gov/organization/dscb/obtaining/. […] The stock solutions were prepared in dimethyl sulfoxide (DMSO, Sigma-Aldrich, St. Louis, MO, cat. D2650), except for the platinum compounds which were prepared in saline (Quality Biological, Gaithersburg, MD, cat. 114-055-101), at 800-fold the tested concentration and stored at -70 degrees C prior to their use. All drugs and investigational agents were tested over a range starting from a high concentration at or near the clinical Cmax and decreasing in half-log increments. If the clinical Cmax for an agent had not been determined, the highest concentration tested was 10 microM, except for SN-38, which was tested at a high concentration of 1 microM.
Cell Culture. All cells were maintained in an incubator at 37 degrees C and 5% CO2 with 95% humidity. The PDC lines were cultured according to standard operating procedures established by the NCI PDMR (https://pdmr.cancer.gov). Table 3 of the manuscript, lists the cell lines along with the number of the three cell types plated to form the mct-spheroids and media for tumor cell growth. After thawing, all PDC lines, except 997537-175-T-J1-PDC and 415267-285-R-J2-PDC, were cultured in Matrigel-coated flasks prepared with a working solution of 1X Ham's F-12 nutrient mix, without supplementation (Thermo Fisher Scientific, cat. 11765054), 100 U/mL penicillin-streptomycin (Thermo Fisher Scientific, cat. 15140122), and 2.5% Matrigel (Corning Inc., Corning, NY, cat. 354248) for the first three passages. The two PDC lines 997537-175-T-J1-PDC and 415267-285-R-J2-PDC were cultured on uncoated flasks. The 857933-349-R-J2-PDC line was cultured in 6C/Colon 1B media containing advanced DMEM/F-12 (Thermo Fisher Scientific, cat. 12634028), 10 mM HEPES (Thermo Fisher Scientific, cat. 15630080), 1X GlutaMAX supplement (Thermo Fisher Scientific, cat. 35050061), 0.1 mg/mL primocin (InvivoGen, San Diego, CA, cat. ant-pm-2), 10% defined fetal bovine serum, heat inactivated (HyClone Laboratories Inc., Logan, UT, cat. SH30070.03HI), 50% L-WRN conditioned media (ATCC, cat. CRL-3276), 1.25 mM N-Acetyl-L-cysteine (Sigma-Aldrich, cat. A9165), 10 mM nicotinamide (Sigma-Aldrich, cat. N0636), 1X B-27 supplement (Thermo Fisher Scientific, cat. 17504044), 1X N-2 supplement (Thermo Fisher Scientific, cat. […]
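Throughout, for viability, T/C: spheroids exposed to drugs for seven days before readout.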

As for `C=CC(=O)N1CCN(c2nc(=O)n(-c3c(C)ccnc3C(C)C)c3nc(-c4c(O)cccc4F)c(F)cc23)C(C)C1` (stereo not given), the IC50 was > 10000 nM. The viability, T/C (compound 0.0316 µM) is 96.7% and 98.3% and 89.5%. In addition, the viability, T/C (compound 0.1 µM) is 85.1% and 110% and 73.2%. Under “compound 0.316 µM”, the viability, T/C was 104% and 107% and 95.8%. In addition, the viability, T/C (compound 1 µM) was 104% and 85.4% and 106%. Besides, the viability, T/C (compound 3.16 µM) was 92.8% and 96.1% and 113%. For the same compound, under “compound 10 µM”, the viability, T/C is 67.2% and 91% and 79.3%.

Regarding `C=CCn1c(=O)c2cnc(Nc3ccc(N4CCN(C)CC4)cc3)nc2n1-c1cccc(C(C)(C)O)n1`, the IC50 was > 1000 nM. For the same compound, under “compound 0.00316 µM”, the viability, T/C is 101% and 96.6% and 95.3%. Also, the viability, T/C (compound 0.01 µM) is 89.5% and 86.3% and 96.3%. Also, where the note is “compound 0.0316 µM”, the viability, T/C was 95.7% (2×) and 111%. Further, the viability, T/C (compound 0.1 µM) was 109% and 97.8% and 99.3%. Moreover, the viability, T/C (compound 0.316 µM) is 91.6% and 93.7% and 98.2%. For the setting “compound 1 µM”, the viability, T/C is 81.1% and 78.6% and 82.7%.

Turning to `CC(=O)O[C@H]1C(=O)[C@@]2(C)[C@H]([C@H](OC(=O)c3ccccc3)[C@]3(O)C[C@H](OC(=O)[C@H](O)[C@@H](NC(=O)c4ccccc4)c4ccccc4)C(C)=C1C3(C)C)[C@]1(OC(C)=O)CO[C@@H]1C[C@@H]2O`, the IC50 is > 3000 nM. Also, the viability, T/C (compound 0.00949 µM) is 65.3% and 60.5%. The viability, T/C (compound 0.03 µM) is 54.6% and 53.3%. For the setting “compound 0.0949 µM”, the viability, T/C was 64.2% and 54.8%. In addition, the viability, T/C (compound 0.3 µM) is 75.2% and 57%. Where the note is “compound 0.949 µM”, the viability, T/C was 74.7% and 55.3%. Moreover, the viability, T/C (compound 3 µM) is 76% and 66.8%.

With `CC(C)n1c(=O)n(C)c2cnc3cc(F)c(-c4ccc(OCCCN5CCCCC5)nc4)cc3c21`, the IC50 was > 10000 nM. Moreover, the viability, T/C (compound 0.0316 µM) was 88.2% and 82.8% and 83.5%. For the same compound, under “compound 0.1 µM”, the viability, T/C was 74.9% and 88.6% and 77.2%. Further, under “compound 0.316 µM”, the viability, T/C is 89% and 79.8% and 78.8%. Besides, the viability, T/C (compound 1 µM) is 86.1% and 87.7% and 92.9%. Further, the viability, T/C (compound 3.16 µM) was 72.1% and 79.5% and 84.4%. For the same compound, the viability, T/C (compound 10 µM) was 72.5% and 79.1% and 55.2%.

Turning to `CC1COCCN1c1cc(-c2ccnn2C)c2ccnc(-c3ccn[nH]3)c2n1` (stereo not given), the IC50 is 858 nM and 836 nM and 903 nM. Further, the viability, T/C (compound 0.0316 µM) is 93.7% and 70.9% and 85.8%. Besides, for the setting “compound 0.1 µM”, the viability, T/C is 87% and 64.9% and 70.9%. Also, the viability, T/C (compound 0.316 µM) is 85.9% and 57.1% and 61.9%. Further, the viability, T/C (compound 1 µM) is 44.4% and 47.7% and 48.8%. Also, the viability, T/C (compound 3.16 µM) is 38.5% and 40.5% and 38.8%. Besides, the viability, T/C (compound 10 µM) is 33.1% and 23.9% and 32.7%.

For `CC1COCCN1c1cc(C2(S(C)(=N)=O)CC2)nc(-c2ccnc3[nH]ccc23)n1` (stereo not given), the half-inhibitory concentration (IC50) was > 10000 nM. Where the note is “compound 0.0316 µM”, the viability, T/C is 87.2% and 79.8% and 109%. The viability, T/C (compound 0.1 µM) is 93.7% and 82.8% and 102%. Besides, the viability, T/C (compound 0.316 µM) is 97.2% and 83.1% and 95%. Also, the viability, T/C (compound 1 µM) is 81.4% and 97.7% and 89.5%. Further, the viability, T/C (compound 3.16 µM) was 73.4% and 81.9% and 68%. Also, for the setting “compound 10 µM”, the viability, T/C was 49.9% and 55.9% and 55.2%.

As for `CCCS(=O)(=O)Nc1ccc(F)c(C(=O)c2c[nH]c3ncc(-c4ccc(Cl)cc4)cc23)c1F`, the IC50 was > 10000 nM. Where the note is “compound 0.0316 µM”, the viability, T/C was 101% and 86.2%. Besides, for the setting “compound 0.1 µM”, the viability, T/C was 91.1% and 76%. Moreover, the viability, T/C (compound 0.316 µM) was 87.4% and 96%. Moreover, under “compound 1 µM”, the viability, T/C was 85.6% and 76.9%. In addition, where the note is “compound 3.16 µM”, the viability, T/C was 72.9% and 74.4%. Also, the viability, T/C (compound 10 µM) was 91.5% and 59.1%.

Take `CC[C@@]1(O)C(=O)OCc2c1cc1n(c2=O)Cc2cc3c(CN(C)C)c(O)ccc3nc2-1`: the IC50 is > 100 nM and 93.3 nM. Also, where the note is “compound 0.000316 µM”, the viability, T/C was 84.4% and 108% and 96.4%. For the same compound, the viability, T/C (compound 0.001 µM) is 99.5% and 88.4% and 89.3%. In addition, the viability, T/C (compound 0.00316 µM) is 92.7% and 105% and 96.4%. For the same compound, the viability, T/C (compound 0.01 µM) was 88.6% and 93.8% and 85.1%. For the same compound, the viability, T/C (compound 0.0316 µM) was 73% and 63.1% and 67.9%. Further, the viability, T/C (compound 0.1 µM) is 51.1% and 55.8% and 48.8%.

In the case of `CCc1c2c(nc3ccc(O)cc13)-c1cc3c(c(=O)n1C2)COC(=O)[C@]3(O)CC`, the IC50 is > 1000 nM. The viability, T/C (compound 0.00316 µM) is 62.8% and 69.6% and 70%. The viability, T/C (compound 0.01 µM) was 52.5% and 56.2% and 54.6%. The viability, T/C (compound 0.0316 µM) was 61.5% and 68% and 63%. The viability, T/C (compound 0.1 µM) was 71.1% and 62.4% and 61.4%. In addition, for the setting “compound 0.316 µM”, the viability, T/C is 57% and 64% and 62.5%. Moreover, where the note is “compound 1 µM”, the viability, T/C is 53.9% and 45.5% and 50.1%.

With `CCc1cc2c(N3CCc4c(cc(Cn5ccnc5)cc4-c4cn(C)nc4C(F)(F)F)C3=O)ccnc2c(OC)n1`, the IC50 was > 10000 nM. In addition, under “compound 0.0316 µM”, the viability, T/C is 85.3% and 83.1% and 106%. Also, the viability, T/C (compound 0.1 µM) was 78.4% and 81% and 75.8%. In addition, the viability, T/C (compound 0.316 µM) was 84.9% and 88.6% and 90.4%. Also, the viability, T/C (compound 1 µM) was 76% and 83.2% and 91.5%. For the setting “compound 3.16 µM”, the viability, T/C is 74.6% and 78.3% and 72.3%. The viability, T/C (compound 10 µM) was 53.8% and 58.4% and 66.4%.
